For orientation: Ki means the equilibrium dissociation constant of an inhibitor or competing ligand from its target. Read a low Ki as higher affinity.

One data set deals with BChE and AChE.
Assay: not given
The note with it: ref Saxena et al. 1997; cited from earlier work.
As for `CCN(CC)C(C)CN1c2ccccc2Sc2ccccc21` (centres unmarked) [ethopropazine], the “Difference in the KI value between BChE and AChE” value is 9000 fold.

In a further data set the target is butyrylcholinesterase (Equus caballus, UniProt P81908). Nature of the data set: Inhibition constant. In kind it is biochemical, equine. The note with it: BChE, 100 µM butyrylthiocholine, 2 % methanol, 25 °C, pH 7.5.
butyrylcholinesterase, sequence (P81908 whole entry): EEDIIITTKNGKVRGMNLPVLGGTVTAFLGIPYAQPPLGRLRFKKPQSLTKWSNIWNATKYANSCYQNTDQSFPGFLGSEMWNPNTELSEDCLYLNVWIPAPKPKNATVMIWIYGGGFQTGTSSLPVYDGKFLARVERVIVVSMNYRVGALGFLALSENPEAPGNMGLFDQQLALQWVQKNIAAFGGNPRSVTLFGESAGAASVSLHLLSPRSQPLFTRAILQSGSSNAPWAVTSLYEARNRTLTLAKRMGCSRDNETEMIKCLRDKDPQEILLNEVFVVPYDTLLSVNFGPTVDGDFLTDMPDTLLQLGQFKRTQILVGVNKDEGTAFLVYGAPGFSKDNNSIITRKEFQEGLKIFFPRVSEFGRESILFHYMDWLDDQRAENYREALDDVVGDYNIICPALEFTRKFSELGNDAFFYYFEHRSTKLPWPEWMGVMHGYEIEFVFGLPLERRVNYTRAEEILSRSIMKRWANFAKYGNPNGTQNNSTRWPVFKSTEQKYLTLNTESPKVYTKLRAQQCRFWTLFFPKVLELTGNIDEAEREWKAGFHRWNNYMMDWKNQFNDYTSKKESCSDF
`CC(C)C[C@H](NC(=O)OCc1ccccc1)C(=O)O` [Cbz-Leu-O^−] displayed a Ki of 1150 ± 130 µM.

The molecule `NCCCC[C@H](NC(=O)OCc1ccccc1)C(=O)O` [Cbz-Lys-O^−] had an inhibition constant (Ki) of 1540 ± 502 µM.

In turn, `CC[C@H](C)[C@H](NC(=O)OCC1c2ccccc2-c2ccccc21)C(=O)O` [Fmoc-Ile-O^−] returned a Ki of 194 ± 13 µM.

`CC(C)C[C@H](NC(=O)OCC1c2ccccc2-c2ccccc21)C(=O)O` [Fmoc-Leu-O^−] registered a Ki of 115 ± 11 µM.

The molecule `NCCCC[C@H](NC(=O)OCC1c2ccccc2-c2ccccc21)C(=O)O` [Fmoc-Lys-O^−] showed a Ki of 150 ± 10 µM.

The molecule `O=C(N[C@@H](Cc1ccccc1)C(=O)O)OCC1c2ccccc2-c2ccccc21` [Fmoc-Phe-O^−] registered a Ki of 330 ± 15 µM.

`O=C(N[C@@H](Cc1c[nH]c2ccccc12)C(=O)O)OCC1c2ccccc2-c2ccccc21` [Fmoc-Trp-O^−] registered a Ki of 193 ± 21 µM.

`O=C(N[C@@H](Cc1ccc(O)cc1)C(=O)O)OCC1c2ccccc2-c2ccccc21` [Fmoc-Tyr-O^−]: the Ki was found to be 307 ± 13 µM.

For `CC(C)[C@H](NC(=O)OCC1c2ccccc2-c2ccccc21)C(=O)O` [Fmoc-Val-O^−], the Ki was found to be 313 ± 14 µM.

Tested on in a further data set: not given
Assay: not given
The note with it: calculated with VOIDOO; ref Saxena et al. 1997; cited from earlier work.
Consider `CCN(CC)C(C)CN1c2ccccc2Sc2ccccc21` (centres unmarked) [ethopropazine], for which the “van der Waals volume” value is given as 317.6 Å^3.
